Experimental data from US10611740B2, “Aryl dihydro-2H-benzo[b][1,4]oxazine sulfonamide and related compounds for use as agonists of RORγ and the treatment of disease” (Lycera Corporation, priority 2015, dated 2020).

Assays:
[1] = biological target: T1, RORγ-LBD (Homo sapiens, UniProt P51449); assay: RORγ-Ligand Binding Domain (LBD) TR-FRET Assay; format: biochemical;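 as to TR-FRET Assay Max Response: 665/615 nm ratio relative to signal without ursolic acid or compound set at 100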
T1 construct: made in house; host or cells: SF9 cells (baculovirus)
T1 sequence (P51449 269-508 limits assumed): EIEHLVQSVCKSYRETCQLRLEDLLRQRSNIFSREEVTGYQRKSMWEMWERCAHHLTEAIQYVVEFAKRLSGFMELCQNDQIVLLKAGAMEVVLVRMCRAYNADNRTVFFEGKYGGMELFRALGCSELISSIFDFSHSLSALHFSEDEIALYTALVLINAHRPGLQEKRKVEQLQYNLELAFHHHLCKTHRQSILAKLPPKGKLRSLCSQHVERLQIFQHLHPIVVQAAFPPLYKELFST
Method in brief: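 Compounds, diluted in DMSO and then in assay buffer (1% DMSO final), were combined with His-tagged RORγ-LBD lysate at roughly 3 nM final and a 200 nM biotinylated SRC1 LXXLL peptide. Ursolic acid was included at 2 μM final. Coactivator recruitment was detected by TR-FRET.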

[2] = biological target: T2, Gal4-RORγ-LBD (Homo sapiens, UniProt P51449); assay: Gal4-RORγ Luciferase Reporter Assay in HEK-293T Cells; format: cell-based; conditions: HEK-293 cells, 2 μM ursolic acid
T2 construct: expressed in transfected cells; host or cells: HEK-293 cells (pcDNA3.1neo plasmid)
T2 sequence (P51449 269-508 limits assumed): T1 sequence (P51449 269-508 limits assumed)
Method in brief: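 HEK-293 cells were transiently co-transfected with Gal4-RORγ-LBD and pGL4.31 Gal4-luciferase, with ursolic acid added at 2 μM final. Compounds were incubated overnight at 37° C. in 0.2% DMSO and luminescence read with One-Glo. Max Response is the upper plateau of a 4-parameter logistic fit, with signal lacking ursolic acid or compound set to 100.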

EC50 [1] [nM]	EC50 [2] [nM]	Compound	TR-FRET Assay Max Response [1]	Gal4-RORγ Assay Max Response [2]
< 500	< 500	O=C(O)[C@H]1C[C@H](C[C@H]2CN(S(=O)(=O)c3cccc(C(F)(F)F)c3)c3cc(-c4cccc(C(F)(F)F)n4)ccc3O2)C1 [Compound 60C, (1S,3r)-3-(((S)-4-((3-(trifluoro-methyl)phenyl)sulfonyl)-6-(6-(trifluoromethyl)pyridin-2-yl)-3,4-dihydro-2H-benzo[b][1,4]-oxazin-2-yl)methyl)cyclobutane-1-carboxylic acid]	** (The symbol “**” indicates a value in the range of greater than 90 to 150)	** (The symbol “**” indicates a value in the range of greater than 90 to 150)
< 500	< 500	CC(=O)N[C@H]1C[C@H](C[C@H]2CN(S(=O)(=O)c3cccc(C(F)(F)F)c3)c3cc(-c4cc(F)cc(OC(F)F)c4)ccc3O2)C1 [Compound 60D, N-((1S,3r)-3-(((S)-6-(3-(difluoro-methoxy)-5-fluoro-phenyl)-4-((3-(trifluoro-methyl)-phenyl)sulfonyl)-3,4-dihydro-2H-benzo[b][1,4]-oxazin-2-yl)methyl)cyclo-butyl)-acetamide]	*** (The symbol “***” indicates a value in the range of greater than 150 to 200)	* (The symbol “*” indicates a value in the range of 25 to 90)
< 500	< 500	CC(=O)N[C@H]1C[C@H](C[C@H]2CN(S(=O)(=O)c3cccc(C(F)(F)F)c3)c3cc(-c4cc(F)ccc4F)ccc3O2)C1 [Compound 60E, N-((1S,3r)-3-(((S)-6-(2,5-difluorophenyl)-4-((3-(trifluoro-methyl)phenyl)sulfonyl)-3,4-dihydro-2H-benzo[b][1,4]oxazin-2-yl)methyl)cyclobutyl)-acetamide]	*** (The symbol “***” indicates a value in the range of greater than 150 to 200)	** (The symbol “**” indicates a value in the range of greater than 90 to 150)
< 500	< 500	C[C@]1(C(=O)O)C[C@H](C[C@H]2CN(S(=O)(=O)c3cccc(C(F)(F)F)c3)c3cc(-c4cccc(C(F)(F)F)n4)ccc3O2)C1 [Compound 60N, (1S,3r)-1-methyl-3-(((S)-4-((3-(trifluoromethyl)phenyl)-sulfonyl)-6-(6-(trifluoro-methyl)pyridin-2-yl)-3,4-dihydro-2H-benzo[b][1,4]-oxazin-2-yl)methyl)cyclobutane-1-carboxylic acid]	** (The symbol “**” indicates a value in the range of greater than 90 to 150)	** (The symbol “**” indicates a value in the range of greater than 90 to 150)
< 500	< 500	CC1(C(=O)O)CC(C[C@H]2CN(S(=O)(=O)c3cccc(C(F)(F)F)c3)c3cc(-c4cccc(C(F)(F)F)n4)ccc3O2)C1 (stereo partly drawn) [Compound 60O, (1R,3s)-1-methyl-3-(((S)-4-((3-(trifluoromethyl)phenyl)-sulfonyl)-6-(6-(trifluoro-methyl)pyridin-2-yl)-3,4-dihydro-2H-benzo[b][1,4]-oxazin-2-yl)methyl)cyclobutane-1-carboxylic acid]	*** (The symbol “***” indicates a value in the range of greater than 150 to 200)	** (The symbol “**” indicates a value in the range of greater than 90 to 150)
< 500	–	O=C(O)[C@]1(C[C@H]2CN(S(=O)(=O)c3cccc(C(F)(F)F)c3)c3cc(-c4cc(F)ccc4F)ccc3O2)CCNC1=O [Compound 77A, (S)-3-(((S)-6-(2,5-difluorophenyl)-4-((3-(trifluoromethyl)phenyl)-sulfonyl)-3,4-dihydro-2H-benzo[b][1,4]oxazin-2-yl)methyl) 2-oxopyrrolidine-3-carboxylic acid]	** (The symbol “**” indicates a value in the range of greater than 90 to 150)	**** (The symbol “****” indicates a value greater than 200)

The next lines start with the molecule.

Compound	EC50 [1] [nM]	EC50 [2] [nM]	TR-FRET Assay Max Response [1]	Gal4-RORγ Assay Max Response [2]
CC(=O)N1CC(C[C@H]2CN(S(=O)(=O)c3cccc(C(F)(F)F)c3)c3cc(-c4cc(F)cc(OC(F)F)c4)ccc3O2)C1 [Compound 61, (S)-1-(3-((6-(3-(difluoromethoxy)-5-fluorophenyl)-4-((3-(trifluoromethyl)phenyl)sulfonyl)-3,4-dihydro-2H-benzo[b][1,4]oxazin-2-yl)methyl)azetidin-1-yl)ethan-1-one]	< 500	< 500	*** (The symbol “***” indicates a value in the range of greater than 150 to 200)	** (The symbol “**” indicates a value in the range of greater than 90 to 150)
CC(=O)N1CC(C[C@H]2CN(S(=O)(=O)c3cccc(C(F)(F)F)c3)c3cc(-c4cc(F)ccc4F)ccc3O2)C1 [Compound 62, (S)-1-(3-((6-(2,5-difluorophenyl)-4-((3-(trifluoromethyl)phenyl)sulfonyl)-3,4-dihydro-2H-benzo[b][1,4]oxazin-2-yl)methyl)azetidin-1-yl)ethan-1-one]	< 500	< 500	** (The symbol “**” indicates a value in the range of greater than 90 to 150)	** (The symbol “**” indicates a value in the range of greater than 90 to 150)
O=C(O)[C@]1(C[C@H]2CN(S(=O)(=O)c3cccc(C(F)(F)F)c3)c3cc(-c4cc(F)cc(OC(F)F)c4)ccc3O2)CCNC1=O [Compound 73, (S)-3-(((S)-6-(3-(difluoromethoxy)-5-fluorophenyl)-4-((3-(trifluoromethyl)phenyl)sulfonyl)-3,4-dihydro-2H-benzo[b][1,4]oxazin-2-yl)methyl)-2-oxopyrrolidine-3-carboxylic acid]	< 500	< 500	*** (The symbol “***” indicates a value in the range of greater than 150 to 200)	** (The symbol “**” indicates a value in the range of greater than 90 to 150)
O=C(O)[C@@]1(C[C@H]2CN(S(=O)(=O)c3cccc(C(F)(F)F)c3)c3cc(-c4cc(F)cc(OC(F)F)c4)ccc3O2)CCNC1=O [Compound 74, (R)-3-(((S)-6-(3-(difluoromethoxy)-5-fluorophenyl)-4-((3-(trifluoromethyl)phenyl)sulfonyl)-3,4-dihydro-2H-benzo[b][1,4]oxazin-2-yl)methyl)-2-oxopyrrolidine-3-carboxylic acid]	< 500	< 500	** (The symbol “**” indicates a value in the range of greater than 90 to 150)	** (The symbol “**” indicates a value in the range of greater than 90 to 150)
O=C1CC[C@@](C[C@H]2CN(S(=O)(=O)c3cccc(C(F)(F)F)c3)c3cc(-c4cc(F)ccc4F)ccc3O2)(C(=O)O)N1 [Compound 75, (R)-2-(((S)-6-(2,5-difluorophenyl)-4-((3-(trifluoromethyl)phenyl)sulfonyl)-3,4-dihydro-2H-benzo[b][1,4]oxazin-2-yl)methyl)-5-oxopyrrolidine-2-carboxylic acid]	< 500	5000 to 10000	** (The symbol “**” indicates a value in the range of greater than 90 to 150)	*** (The symbol “***” indicates a value in the range of greater than 150 to 200)
